Experimental data from patent publication US20080275085A1, “Piperidine derivative and use thereof” (priority 2007, published 2008).
Where a name gives a salt, the structure may show the parent alone.

Legend:
[1] = target: T1, substance P receptor (Homo sapiens, UniProt P25103); experiment: Radioligand receptor binding inhibitory activity (125I-BHSP binding, receptor from IM-9 cells); settings: receptor from human lymphoblast cells (IM-9); radioligand 125I-BHSP; 25° C., 30 min
T1 construct: The receptor was prepared from human lymphoblast cells (IM-9); endogenous in cells; host or cells: IM-9 human lymphoblast cells (membrane fraction, 100,000xG precipitate)
Description: Radioligand Receptor Binding Inhibitory Activity (Binding Inhibitory Activity Using Receptor from Human Lymphoblast Cells (IM-9))
The method of M. A. Cascieri et al., “Molecular Pharmacology, vol. 42, p. 458 (1992)” was modified and used. The receptor was prepared from human lymphoblast cells (IM-9).
IM-9 cells (2×10^5 cells/mL) were inoculated and incubated for 3 days, which was then subjected to centrifugation for 10 min. at 500×G to give cell pellets. The obtained pellets were washed with PBS (GIBCO), disrupted in buffer A (50 mM tris.hydrochloric acid buffer (pH 7.4) containing 120 mM sodium chloride, 5 mM potassium chloride, 2 μg/mL chymostatin, 40 μg/mL bacitracin, 40 μg/mL APMSF, 1 mM ethylenediamine tetra acetic acid) using a polytron.homogenizer [manufactured by Kinematika, Germany], and centrifuged at 100,000×G for 40 min. The precipitated fraction was suspended in buffer B (50 mM Tris-HCl (pH 7.4), 0.02% bovine serum albumin, 2 μg/mL chymostatin, 40 μg/mL bacitracin, 40 μg/mL APMSF, 3 mM MgCl2), which was then cryopreserved (−80° C.) as a receptor specimen.
Buffer B (50 μL) was added to a 96 well microassay plate (CORNING). Thereto was added 50 μL of membrane preparation suspended in buffer B at 250 μg/mL. A measurement buffer (50 μL) containing 2% dimethyl sulfoxide was added to examine total binding; 4 μM unlabeled SP (50 μL) diluted with a measurement buffer containing 2% dimethyl sulfoxide was added to examine non-specific binding; and 50 μL of a test compound (containing 2% dimethyl sulfoxide) diluted with a measurement buffer was added to examine binding inhibitory activity of the test compound. In addition, […] ^125I-BHSP solution (50 μL) was added to each well.
After reaction at 25° C. for 30 min, the cells were rapidly filtered through a GF/C filter plate (PerkinElmer) using a cell harvester (manufactured by PerkinElmer) to quench the reaction, and washed 10 times with 250 μL of 50 mM tris-HCl buffer (pH 7.4) containing 0.02% bovine serum albumin. The GF/C filter plate was dried, MicroScinti 0 (20 μL) was added, and the radioactivity was measured with TopCount (manufactured by PerkinElmer). The GF/C filter plate was immersed in 0.3% polyethylene imine for one day before use.
Specific binding is a value obtained by subtracting nonspecific binding from total binding. The binding inhibitory activity of a test compound is shown by a ratio of a value obtained by subtracting a measurement value with addition of a test compound from the total binding, relative to specific binding.
The antagonistic activity of the compounds obtained in the Examples was determined as a concentration necessary for causing 50% inhibition (IC50 value) under the above-described conditions, and the results shown in Table 34 were obtained.
The radio ligand means substance P labeled with [^125I].

T1 sequence (P25103 whole entry): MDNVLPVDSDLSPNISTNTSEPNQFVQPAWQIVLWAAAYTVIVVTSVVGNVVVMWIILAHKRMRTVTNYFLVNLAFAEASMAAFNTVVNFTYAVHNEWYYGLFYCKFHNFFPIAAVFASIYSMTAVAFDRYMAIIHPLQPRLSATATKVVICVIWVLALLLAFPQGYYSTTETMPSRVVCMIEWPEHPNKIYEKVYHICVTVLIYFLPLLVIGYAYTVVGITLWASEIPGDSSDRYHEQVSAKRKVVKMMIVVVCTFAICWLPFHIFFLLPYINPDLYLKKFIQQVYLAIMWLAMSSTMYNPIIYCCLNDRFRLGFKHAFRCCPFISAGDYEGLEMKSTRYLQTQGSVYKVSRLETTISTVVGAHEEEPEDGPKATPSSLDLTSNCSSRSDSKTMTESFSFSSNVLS

SMILES	melting point [°C]	IC50 [1] [nM]
Cc1cc(F)ccc1[C@@H]1CN(C2=CC(=O)CC2)CC[C@H]1C(=O)N(C)Cc1cc(C(F)(F)F)cc(C(F)(F)F)c1 (relative stereo) [Example 118, (3R*,4R*)—N-[3,5-bis(trifluoromethyl)benzyl]-3-(4-fluoro-2-methylphenyl)-N-methyl-1-(3-oxocyclopent-1-en-1-yl)piperidine-4-carboxamide]	192 to 193	0.06
CCS(=O)(=O)N1CC[C@@H](C(=O)N(C)Cc2cc(C(F)(F)F)cc(C(F)(F)F)c2)[C@H](c2ccc(F)cc2C)C1 (relative stereo) [Example 132, (3R*,4R*)—N-[3,5-bis(trifluoromethyl)benzyl]-1-(ethylsulfonyl)-3-(4-fluoro-2-methylphenyl)-N-methylpiperidine-4-carboxamide]	170 to 171	0.04
CCOCCS(=O)(=O)N1CC[C@@H](C(=O)N(C)Cc2cc(C(F)(F)F)cc(C(F)(F)F)c2)[C@H](c2ccc(F)cc2C)C1 (relative stereo) [Example 138, (3R*,4R*)—N-[3,5-bis(trifluoromethyl)benzyl]-1-[(2-ethoxyethyl)sulfonyl]-3-(4-fluoro-2-methylphenyl)-N-methylpiperidine-4-carboxamide]	151 to 153	0.078
Cc1cc(F)ccc1[C@@H]1CN(C2=CC(=O)C(C)(C)CC2)CC[C@H]1C(=O)N(C)Cc1cc(C(F)(F)F)cc(C(F)(F)F)c1 (relative stereo) [Example 119, (3R*,4R*)—N-[3,5-bis(trifluoromethyl)benzyl]-1-(4,4-dimethyl-3-oxocyclohex-1-en-1-yl)-3-(4-fluoro-2-methylphenyl)-N-methylpiperidine-4-carboxamide]	137 to 138	0.06
Cc1cc(F)ccc1[C@@H]1CN(S(=O)(=O)CCN2CCOCC2)CC[C@H]1C(=O)N(C)Cc1cc(C(F)(F)F)cc(C(F)(F)F)c1 (relative stereo) (as salt: hydrochloride) [Example 139, (3R*,4R*)—N-[3,5-bis(trifluoromethyl)benzyl]-3-(4-fluoro-2-methylphenyl)-N-methyl-1-[(2-morpholin-4-ylethyl)sulfonyl]piperidine-4-carboxamide monohydrochloride]	196 to 198	
Cc1cc(F)ccc1[C@@H]1CN(CCC(C)(C)O)CC[C@H]1C(=O)N(C)Cc1cc(C(F)(F)F)cc(C(F)(F)F)c1 (relative stereo) (as salt: hydrochloride) (hydrate or solvate) [Example 123, (3R*,4R*)—N-[3,5-bis(trifluoromethyl)benzyl]-3-(4-fluoro-2-methylphenyl)-1-(3-hydroxy-3-methylbutyl)-N-methylpiperidine-4-carboxamide monohydrochloride]	126 to 128	
Cc1cc(F)ccc1[C@@H]1CN(C2CCN(C(N)=O)CC2)CC[C@H]1C(=O)N(C)Cc1cc(C(F)(F)F)cc(C(F)(F)F)c1 (relative stereo) (as salt: hydrochloride) (hydrate or solvate) [Example 109, (3R*,4R*)—N^4-[3,5-bis(trifluoromethyl)benzyl]-3-(4-fluoro-2-methylphenyl)-N^4-methyl-1,4′-bipiperidine-1′,4-dicarboxamide monohydrochloride]	175 to 178	

Now from value to molecule:

melting point [°C]	IC50 [1] [nM]	SMILES
187 to 189	0.045	Cc1cc(F)ccc1[C@@H]1CN(S(=O)(=O)c2ccccn2)CC[C@H]1C(=O)N(C)Cc1cc(C(F)(F)F)cc(C(F)(F)F)c1 (relative stereo) [Example 144, (3R*,4R*)—N-[3,5-bis(trifluoromethyl)benzyl]-3-(4-fluoro-2-methylphenyl)-N-methyl-1-(pyridin-2-ylsulfonyl)piperidine-4-carboxamide]
154 to 156	0.081	Cc1cc(F)ccc1[C@H]1CN(S(=O)(=O)C2CC2)CC[C@@H]1C(=O)N(C)[C@@H](C)c1cc(C(F)(F)F)cc(C(F)(F)F)c1 [Example 162, (3S,4S)—N-{(1S)-1-[3,5-bis(trifluoromethyl)phenyl]ethyl}-1-(cyclopropylsulfonyl)-3-(4-fluoro-2-methylphenyl)-N-methylpiperidine-4-carboxamide]
142 to 144	0.055	Cc1cc(F)ccc1[C@@H]1CN(S(=O)(=O)N(C)C)CC[C@H]1C(=O)N(C)Cc1cc(C(F)(F)F)cc(C(F)(F)F)c1 (relative stereo) [Example 142, (3R*,4R*)—N-[3,5-bis(trifluoromethyl)benzyl]-1-[(dimethylamino)sulfonyl]-3-(4-fluoro-2-methylphenyl)-N-methylpiperidine-4-carboxamide]
161 to 164	0.024	Cc1cc(F)ccc1[C@H]1CN(CC(N)=O)CC[C@@H]1C(=O)N(C)[C@@H](C)c1cc(C(F)(F)F)cc(C(F)(F)F)c1 [Example 156, (3S,4S)-1-(2-amino-2-oxoethyl)-N-{(1S)-1-[3,5-bis(trifluoromethyl)phenyl]ethyl}-3-(4-fluoro-2-methylphenyl)-N-methylpiperidine-4-carboxamide]
108 to 116		Cc1cc(F)ccc1[C@H]1CN(C(=O)C2CCN(C(=O)CO)CC2)CC[C@@H]1C(=O)N(C)[C@@H](C)c1cc(C(F)(F)F)cc(C(F)(F)F)c1 (hydrate or solvate) [Example 152, (3S,4S)—N-{(1S)-1-[3,5-bis(trifluoromethyl)phenyl]ethyl}-3-(4-fluoro-2-methylphenyl)-1-[(1-glycoloylpiperidin-4-yl)carbonyl]-N-methylpiperidine-4-carboxamide]
